The target in data set [1] is DGAT2. The settings on record: ASO.
Data set [2] concerns the target SNHG14. The settings on record: ASO.
The mark [3] stands for this setting: Mouse Primary Neuronal Cell, 0.005 µM.

Values joined by “and” are separate entries in the source; they are usually repeats but may differ in a detail not shown here. Equal values may be shown once. After the bases stand the sugars from the 5' end (letter, count) and the backbone: PS all phosphorothioate, else s phosphorothioate and o phosphodiester by linkage. Methylation of C is not given here. e = 2'-O-(2-methoxyethyl) (MOE); l = locked nucleic acid (LNA); d = 2'-deoxy (DNA)

With “GCAATGCCAATGCCTAGGTC (sugars e5 d10 e5, PS)”, the target mRNA inhibition in data set [1] (HepG2, 2.5 µM) was 87% and 89%; in data set [1] (HepG2, 10 µM) it was 82% and 91%.

In the case of “TCTTCACCAGCTGGATGGGA (sugars e5 d10 e5, PS)”, in data set [1] (HepG2, 0.12 µM), the target mRNA inhibition stood at 50%. On the same count and under the same terms, to “CCAACTCCTCCCCTTGGCAG (sugars e5 d10 e5, PS)” belongs 28%. Regarding “GCTCTCATTTCTTATCTTCA (sugars e5 d10 e5, PS)”, the target mRNA inhibition in data set [1] (HepG2, 2.5 µM) is 82% and 80%; in data set [1] (HepG2, 10 µM) it was 95% and 93%. For the sequence “TGGAGCTCAGAGACTCAGCC (sugars e2 d16 e2, PS)”, in data set [1] (HepG2, 0.12 µM), the target mRNA inhibition turned out to be 37%. Take “CCTGGACAAGTCCTGCCCAT (sugars e3 d14 e3, PS)”: the target mRNA inhibition in data set [1] (HepG2, 0.12 µM) came out at 70%.

In the case of “TCCACCTAGCTCATGGTGGC (sugars e5 d10 e5, PS)”, the target mRNA inhibition in data set [1] (HepG2, 0.12 µM) came out at 21%. Regarding “TTCCTGGTGGTCAGCAGGTT (sugars e5 d10 e5, PS)”, in data set [1] (HepG2, 0.12 µM), the target mRNA inhibition came out at 61%. Still for that read-out and setting: the figure for “GATGGCAACCTAAGGAGTGA (sugars e5 d10 e5, PS)” is 37%. For the sequence “GCTCAGCACTGACATGGTAA (sugars e5 d10 e5, PS)”, the target mRNA inhibition in data set [1] (HepG2, 2.5 µM) was 79% and 66%; in data set [1] (HepG2, 10 µM), 96% and 92%. With “TGGCCCTGTGCTCTGTGGGC (sugars e5 d10 e5, PS)”, the target mRNA inhibition in data set [1] (HepG2, 10 µM) is 35% and 33%. As for “CATTGCTCAGATCACTCTGC (sugars e5 d10 e5, PS)”, the target mRNA inhibition in data set [1] (HepG2, 2.5 µM) amounted to 88%; in data set [1] (HepG2, 10 µM), 74%. The matching figures for “TGGCTCAGTTCACCTCCAGG (sugars e5 d10 e5, PS)”: 53% and 86%.

Consider “TTGCTTAAACAGATAAGCAC (sugars e5 d10 e5, PS)”, for which the target mRNA inhibition in data set [1] (HepG2, 0.12 µM) stood at 17%.

“AATTATTTATACACCATCAT (sugars llldllddddddddlddlll, PS)”: the target mRNA inhibition in data set [2] (Human Neuronal Cell, 7.5 µM) turned out to be 64%. Same read-out and setting: to “TCCATTTATTTCCATTTAT (sugars l2 d11 l2 d2 l2, PS)” belongs 53%. On the same count and under the same terms, to “TTACACTTAATTATACTTCC (sugars l2 d4 l1 d11 l2, PS)” belongs 41%; to “GTTTCCATCTACTATTAA (sugars ldlllddddddddlddll, PS)”, 49%. Regarding “TTATTTCCATTTATTTTCA (sugars ldldlddddddddllldll, PS)”, in data set [2] (Human Neuronal Cell, 7.5 µM), the target mRNA inhibition was 62%.

In the case of “ACTCTGCAATACACCAA (sugars lddldddddddldldll, PS)”, the target mRNA inhibition in data set [2] (Human Neuronal Cell, 7.5 µM) came to 66%.

Take “CACCTGATAACAGACCCT (sugars l3 d12 l3, PS)”: the target mRNA inhibition in data set [2] (Human Neuronal Cell, 0.2 µM) was 24%; in data set [2] (Human Neuronal Cell, 1 µM) it was 16%; in data set [2] (Human Neuronal Cell, 5 µM) it was -10%.

Consider “AGTTCTACTATACTTTC (sugars l3 d8 l2 d2 l2, PS)”, for which the target mRNA inhibition in data set [2] (Human Neuronal Cell, 7.5 µM) amounted to 12%.

For “TTTATCAATATCTTCTCACT (sugars lddlddldddddddddddll, PS)”, the target mRNA inhibition in data set [2] (Human Neuronal Cell, 7.5 µM) is 28%. As to “TTGTCAATCTTTATTCT (sugars l4 d11 l2, PS)”, the target mRNA inhibition in data set [2] (Human Neuronal Cell, 0.2 µM) is 33%; in data set [2] (Human Neuronal Cell, 1 µM), 45%.

Take “CTTTTAACCAGAGTGGCA (sugars l1 d14 l3, PS)”: in data set [2] (Human Neuronal Cell, 7.5 µM), the target mRNA inhibition came out at 61%.

Turning to ATCTCAACTACCATTT (sugars l4 d10 l2, PS), the target mRNA inhibition in data set [2] (Human Neuronal Cell, 0.2 µM) came to 67%; in data set [2] (Human Neuronal Cell, 1 µM) it was 67%.

As for “TTTATCAATATCTTCTCACT (sugars lddddlddddddddldddll, PS)”, in data set [2] (Human Neuronal Cell, 7.5 µM), the target mRNA inhibition came to 34%. With “ACCTACATCTCATACTT (sugars l2 d13 l2, PS)”, the target mRNA inhibition is 3% in data set [2] (Human Neuronal Cell, 0.2 µM); -18% in data set [2] (Human Neuronal Cell, 1 µM); 7% in data set [2] (Human Neuronal Cell, 5 µM); 88.6% in data set [2] (setting [3]). For the sequence “CTTACCAATAGTTACCT (sugars l3 d11 l3, PS)”, the target mRNA inhibition in data set [2] (Human Neuronal Cell, 0.2 µM) came to 49%; in data set [2] (Human Neuronal Cell, 1 µM), 54%. “ATATTGATTCAATTCCC (sugars ldlddddddddlddlll, PS)”: the target mRNA inhibition in data set [2] (Human Neuronal Cell, 7.5 µM) turned out to be 67%.

For “CTTTGACATTCCATCTC (sugars l2 d11 l4, PS)”, the target mRNA inhibition in data set [2] (Human Neuronal Cell, 0.2 µM) stood at 52%; in data set [2] (Human Neuronal Cell, 1 µM) it was 59%. As for “TTACACTTAATTATACTTCC (sugars ldllddldddddddldddll, PS)”, in data set [2] (Human Neuronal Cell, 7.5 µM), the target mRNA inhibition was found to be 64%. On the same count and under the same terms, to “AGTTCTACTATACTTTC (sugars l1 d10 l6, PS)” belongs 47%.

As to “ACTGTTTATACCCTTTC (sugars ldlddddddddldldll, PS)”, the target mRNA inhibition in data set [2] (Human Neuronal Cell, 7.5 µM) worked out at 63%. As to CCTCAACTTCACCAAT (sugars l2 d10 l4, PS), the target mRNA inhibition in data set [2] (Human Neuronal Cell, 0.2 µM) was determined as 37%; in data set [2] (Human Neuronal Cell, 1 µM), 49%.

In the case of “CCTACATCTCATACTTGC (sugars l2 d12 l4, PS)”, the target mRNA inhibition in data set [2] (setting [3]) worked out at 97.3%.

As to “ATTTACACTTAATTATACTT (sugars llldlddddddddlldllll, PS)”, the target mRNA inhibition in data set [2] (Human Neuronal Cell, 7.5 µM) amounted to 27%. Same read-out and setting: the figure for “ATTTATTTCCATTTATTTTC (sugars ldddlldddddddldddlll, PS)” is 64%; for “TAAAATTATTTATACACCAT (sugars ldldllddddddddldllll, PS)” it is 45%. As for TATTGAACCAATTCTA (sugars l3 d10 l3, PS), the target mRNA inhibition amounted to 34% in data set [2] (Human Neuronal Cell, 0.2 µM) and 47% in data set [2] (Human Neuronal Cell, 1 µM). “TTCTGTATACACCATCC (sugars l1 d2 l1 d11 l2, PS)”: the target mRNA inhibition in data set [2] (Human Neuronal Cell, 7.5 µM) was 56%. The same measure, in the same setting: the figure for “ACTGTTTATACCCTTTC (sugars l2 d9 l1 d3 l2, PS)” is 49%.

The values are drawn from the OligoGym collection.
